Test results as given in US20230348454A1, “COMPOUNDS AS MODULATORS OF BIS-PHOSPHOGLYCERATE MUTASE FOR THE TREATMENT OF SICKLE CELL DISEASE” (Genzyme Corporation, priority 2020, published 2023).
Like-named read-outs stand apart in the source and are kept apart here.

Tests used:
human red blood cells = test: Human cell-based assay (2,3-BPG, ATP by LC/MS); conditions: Erythrocyte, whole blood suspension, 37° C., 24 h, read-out: hRBC EC50
Description: The following materials were used in this assay: DMSO; Hemox buffer (30 mM TES, 135 mM NaCl, 5 mM KCl, pH 7.4); Inosine (100 mM in hemox buffer); Glucose (1 M in water); human red blood cells; LC/MS Optima grade methanol; LC/MS Optima grade water; and Incubation buffer (30 mM TES, 135 mM NaCl, 5 mM KCl, 50 mM inosine, 20 mM glucose pH 7.4).
Test compounds were loaded onto a 96-well plate (final concentration of DMSO was 1%). 10 mL whole blood was resuspended with an equivalent amount of 2× incubation buffer to make 25% het & 50% plasma solution. The final solution contains 10 mM glucose and 25 mM inosine. The blood suspension (100 uL) was added to the wells of the plate. The plate was covered with an adhesive foil cover and plastic lid, and incubated at 37° C. for 24 h. The samples were extracted through an SPE column and the metabolites (2,3-BPG, ATP) were analyzed by LC/MS.

hBPGM = molecular target: T1, hBPGM (Homo sapiens, UniProt P07738); test: BPGM synthase assay; format: biochemical
T1 sequence (P07738 1-259): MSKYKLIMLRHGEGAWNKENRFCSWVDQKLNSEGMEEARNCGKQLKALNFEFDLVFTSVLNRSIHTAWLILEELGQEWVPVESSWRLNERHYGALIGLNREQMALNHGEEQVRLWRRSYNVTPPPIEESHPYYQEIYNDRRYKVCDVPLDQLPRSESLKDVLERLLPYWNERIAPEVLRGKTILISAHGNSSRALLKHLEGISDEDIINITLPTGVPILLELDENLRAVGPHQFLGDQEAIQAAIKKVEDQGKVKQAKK
Procedure, shortened: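 The enzyme solution held 5 nM BPGM with 0.4 U/mL coupling GAPDH in Tris pH 7.4, 3.23 mM KH2PO4, 1 mM DTT, and compounds were pre-incubated 30 min at RT. Substrate solution (2 mM NAD, 20 μM 3PG, 800 μM GAP) reacted 60 min before a koningic acid quench. NADH fluorescence (360/460) and diaphorase/resazurin-derived resorufin (544/590) were read.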

[1] = molecular target: T2, human Bisphosphoglycerate mutase (hBPGM) (Homo sapiens, UniProt P07738); test: BPGM phosphatase assay; format: biochemical
T2 sequence (P07738 1-259): T1 sequence (P07738 1-259)
Description: The following materials were used in this assay: Tris buffer (50 mM Tris, 0.01% Tween 20, pH 7.4); cyclohexylammonium salt of 2,3-BPG (stock solution of 500 mM in ultapure distilled water; human Bisphosphoglycerate mutase (hBPGM; stock solution of 110 μM in Standard Buffer); 3-Phosphoglyceric acid (3-PG; stock solution of 100 mM in ultrapure distilled water); 384-Well Polystyrene Plates (Fisherbrand™, Catalog No.: 12-566-625); BIOMOL GREEN REAGENT (Enzo life sciences, BML-AK111-0250); and 1 mM DMSO stock of exemplary compounds.
A 3-PG enzyme mix solution (final enzyme concentration 62.5 nM, 3-PG concentration at 50 µM, 14.5 uL) was added to onto a 384-well clear plate. Solutions of the test compounds were then added to the plate and the DMSO content was normalized across the plate. The plate was incubated at RT for 15 min. Next, the substrate 2,3-BPG (5 μL) was added to all the wells, and the plate was sealed and incubated for 24 hr at RT. After incubation, BIOMOL green dye (40 μL) was added to all the wells, the plate was shaken to mix, and the plate was incubated at RT for 20-30 min. Absorbance measurements were recorded at 620 nm.

[2] = Table 6, read-out: huBPGM: synthase Enzyme IC50
[3] = Table 6, read-out: huBPGM: phosphatase Enzyme EC50
[4] = Table 3, read-out: hBPGM Synthase IC50
[5] = Table 4, read-out: hBPGM Phosphatase EC50

SMILES	EC50 (human red blood cells) [nM]	IC50 (hBPGM; [2]) [nM]	EC50 [1, 3] [nM]	IC50 (hBPGM; [4]) [nM]	EC50 [1, 5] [nM]
COC(=O)NCc1nc(C)c(-c2csc(-c3cc(F)c4[nH]nnc4c3F)n2)s1 [compound 16]	22500	–	–	–	–
COC(=O)NCc1nc(C)c(-c2csc(-c3ccc(O)c(C#N)c3F)n2)s1 [Example 173]	–	1500	> 25000	–	–
Cc1nc(COCC(=O)N2CCCC2)sc1-c1csc(-c2cc(F)c(O)c(F)c2F)n1 [Example 127]	–	430	380	–	–
Cc1nc(COc2ccccn2)sc1-c1csc(-c2cc(F)c(O)c(F)c2F)n1 [compound 11]	–	510	190	511	190
Cc1nc(CNC(=O)c2cccnn2)sc1-c1csc(-c2cc(F)c(O)c(F)c2)c1 [Example 194]	–	820	370	–	–
COC(=O)NCc1nc(C)c(-c2csc(-c3cc(F)c4[nH]nnc4c3)n2)s1 [Example 214]	–	180	96	–	–
Cc1nc(COC(=O)N2CCN(C)CC2)sc1-c1cccc(-c2cc(F)c3nn[nH]c3c2)n1 [Example 147]	–	550	490	–	–
Cc1nc(CNC(=O)c2cccnn2)sc1-c1csc(-c2cc(F)c(O)c(F)c2F)n1 [Example 188]	–	84	140	–	–
Cc1nc(CNC(=O)c2cccnn2)sc1-c1cccc(-c2cc(F)c(O)c(F)c2F)n1 [Example 164]	–	680	550	–	–
CC(=O)NCc1nc(C)c(-c2csc(-c3cc(F)c4[nH]nnc4c3)n2)s1 [Example 103]	–	930	> 25000	–	–
Cc1nc(COc2ncccn2)sc1-c1csc(-c2cc(F)c(O)c(F)c2F)c1 [Example 154]	–	110	49	–	–
Cc1cnc(OCc2nc(C)c(-c3cccc(-c4cc(F)c5nn[nH]c5c4)n3)s2)nc1 [Example 152]	–	40	30	–	–
COC(=O)NCc1nc(C)c(-c2csc(-c3ccc(C(=O)NS(C)(=O)=O)c(O)c3)n2)s1 [Example 206]	–	1400	1200	–	–
Cc1nc(COc2ncccn2)sc1-c1cccc(-c2ccc(C#N)c(O)c2)n1 [Example 158]	–	240	530	–	–
Cc1nc(CNC(=O)C(C)CN(C)C)sc1-c1cccc(-c2cc(F)c3nn[nH]c3c2F)n1 (stereo not shown) [Example 138]	–	960	> 25000	–	–
Cc1nc(COc2ccccn2)sc1-c1csc(-c2cc(F)c(O)c(F)c2F)c1 [Example 102]	–	620	45	–	–
Cc1nc(COc2ncccn2)sc1-c1csc(-c2cc(F)c3[nH]nnc3c2)c1 [Example 145]	–	250	30	–	–
CC(=O)NCc1nc(C)c(-c2csc(-c3cc(F)c(O)c(F)c3F)n2)s1 [Example 96]	–	1600	1000	–	–
Cc1nc(CNC(=O)C(C)(C)C)sc1-c1csc(-c2cc(F)c(O)c(F)c2)c1 [Example 197]	–	3100	400	–	–
COC(=O)NCc1nc(C)c(-c2csc(-c3ccc(O)c(F)c3)n2)s1 [Example 203]	–	6100	3600	–	–
Cc1nc(COc2ncccn2)sc1-c1csc(-c2cc(F)c(O)c(F)c2F)n1 [compound 10]	–	130	310	–	310

SMILES	EC50 (human red blood cells) [nM]	IC50 (hBPGM; [2]) [nM]	EC50 [1, 3] [nM]	IC50 (hBPGM; [4]) [nM]	EC50 [1, 5] [nM]
Cc1nc(CNC(=O)c2cccnn2)sc1-c1csc(-c2cc(F)c(O)c(F)c2)n1 [Example 201]	–	410	180	–	–
COC(=O)NCc1nc(C)c(-c2csc(-c3ccc(C(=O)NS(=O)(=O)c4ccccc4)cc3)n2)s1 [compound 13]	–	170	32	169	55
Cc1nc(COc2ncccn2)sc1-c1cccc(-c2ccc3nnc(O)n3c2)n1 [Example 151]	–	1500	20000	–	–
Cc1nc(COc2ncccn2)sc1-c1cccc(-c2ccc(O)c(C#N)c2)n1 [Example 159]	–	290	1800	–	–
Cc1nc(CNc2ncccn2)sc1-c1csc(-c2cc(F)c3[nH]nnc3c2)n1 [Example 175]	–	79	30	–	–
COC(=O)NCc1nc(C)c(-c2csc(-c3ccc(C(=O)Nc4nnn[nH]4)cc3)n2)s1 [Example 207]	–	6500	8200	–	–
Cc1nc(COc2ccccn2)sc1-c1csc(-c2cc(F)c(O)c(F)c2)n1 [Example 192]	–	1000	490	–	–
Cc1nc(CNC(=O)C(C)(C)C)sc1-c1csc(-c2cc(F)c(O)c(F)c2)n1 [Example 196]	–	1600	4900	–	–
COC(=O)NCc1nc(C)c(-c2csc(-c3cc(F)c(O)cc3F)n2)s1 [Example 178]	–	1700	1700	–	–
COC(=O)NCc1nc(C)c(-c2csc(-c3ccc(O)c(F)c3F)n2)s1 [Example 190]	–	4200	3300	–	–
Cc1nc(CNC(=O)N2CC(O)C2)sc1-c1csc(-c2cc(F)c(O)c(F)c2F)n1 [Example 97]	–	1800	6900	–	–
COc1cnc(OCc2nc(C)c(-c3cccc(-c4cc(F)c5nn[nH]c5c4)n3)s2)nc1 [Example 142]	–	260	40	–	–
Cc1nc(COCC(=O)N(C)C)sc1-c1csc(-c2cc(F)c(O)c(F)c2F)n1 [Example 160]	–	460	520	–	–
Cc1nc(COc2ncccn2)sc1-c1cccc(-c2cc(F)c3[nH]nnc3c2)c1 [Example 177]	–	440	250	–	–
Cc1nc(COCC(=O)N2CCN(CCO)CC2)sc1-c1csc(-c2cc(F)c(O)c(F)c2F)n1 [Example 104]	–	2300	> 25000	–	–
Cc1cnc(OCc2nc(C)c(-c3cccc(-c4cc(F)c5nn[nH]c5c4)n3)s2)nc1C [Example 136]	–	200	70	–	–
Cc1nc(CNC(=O)C(C)(C)C)sc1-c1csc(-c2cc3nn[nH]c3cc2F)n1 [Example 181]	–	300	790	–	–
COC(=O)NCc1nc(C)c(-c2cccc(-c3cc(F)c(O)c(F)c3F)n2)s1 [Example 171]	–	810	1900	–	–
COC(=O)NCc1nc(C)c(-c2csc(-c3ccc4[nH]nnc4c3F)n2)s1 [Example 166]	–	110	170	–	–
Cc1nc(COC(=O)N(C)C)sc1-c1cccc(-c2cc(F)c(O)c(F)c2F)n1 [Example 169]	–	560	330	–	–
Cc1nc(COCC(=O)O)sc1-c1csc(-c2cc(F)c(O)c(F)c2F)n1 [Example 99]	–	4700	7800	–	–
